Data from PubChem BioAssay (NCI).
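These data come from cells grown in 96-well plates and exposed to compound for 48 hours at five concentrations. Abbreviation: GI50, concentration required for 50% inhibition of growth. TGI: concentration producing complete growth inhibition.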

Assays:
Experiment in all cases: inhibition of tumour cell growth, NCI panel, 48 h
HOP-92 NSCLC = test system: HOP-92 NSCLC
SK-MEL-5 melanoma = test system: SK-MEL-5 melanoma
K-562 leukemia = test system: K-562 leukemia
M14 melanoma = test system: M14 melanoma
SR leukemia = test system: SR leukemia
UACC-257 melanoma = test system: UACC-257 melanoma
RXF 393 renal = test system: RXF 393 renal
BT-549 breast = test system: BT-549 breast
LOX IMVI melanoma = test system: LOX IMVI melanoma
NCI-H23 lung = test system: NCI-H23 lung
HS 578T breast = test system: HS 578T breast
PC-3 prostate = test system: PC-3 prostate
U251 CNS = test system: U251 CNS
HCT-116 colon = test system: HCT-116 colon
SK-MEL-2 melanoma = test system: SK-MEL-2 melanoma
SF-268 CNS = test system: SF-268 CNS
NCI-H522 lung = test system: NCI-H522 lung
ACHN renal = test system: ACHN renal
MOLT-4 leukemia = test system: MOLT-4 leukemia
HT29 colon = test system: HT29 colon
SF-295 CNS = test system: SF-295 CNS
T-47D breast = test system: T-47D breast
MDA-MB-435 = test system: MDA-MB-435
A498 renal = test system: A498 renal
NCI-H460 lung = test system: NCI-H460 lung
MCF7 breast = test system: MCF7 breast
HL-60(TB) leukemia = test system: HL-60(TB) leukemia
OVCAR-5 ovarian = test system: OVCAR-5 ovarian
MALME-3M melanoma = test system: MALME-3M melanoma
NCI-H226 lung = test system: NCI-H226 lung
OVCAR-3 ovarian = test system: OVCAR-3 ovarian
NCI/ADR-RES ovarian = test system: NCI/ADR-RES ovarian
TK-10 renal = test system: TK-10 renal
SK-MEL-28 melanoma = test system: SK-MEL-28 melanoma
COLO 205 colon = test system: COLO 205 colon
IGROV1 ovarian = test system: IGROV1 ovarian
DU-145 prostate = test system: DU-145 prostate
786-0 renal = test system: 786-0 renal
OVCAR-8 ovarian = test system: OVCAR-8 ovarian
SK-OV-3 ovarian = test system: SK-OV-3 ovarian
HCC-2998 colon = test system: HCC-2998 colon
SNB-19 CNS = test system: SNB-19 CNS
CCRF-CEM leukemia = test system: CCRF-CEM leukemia
SF-539 CNS = test system: SF-539 CNS
UACC-62 melanoma = test system: UACC-62 melanoma
SN12C renal = test system: SN12C renal
UO-31 renal = test system: UO-31 renal
RPMI-8226 leukemia = test system: RPMI-8226 leukemia
SW-620 colon = test system: SW-620 colon
MDA-MB-231 breast = test system: MDA-MB-231 breast
A549 NSCLC = test system: A549 NSCLC
KM12 colon = test system: KM12 colon
HOP-62 NSCLC = test system: HOP-62 NSCLC
HCT-15 colon = test system: HCT-15 colon
OVCAR-4 ovarian = test system: OVCAR-4 ovarian

COc1cc(-c2cc(/C=C/C(=O)c3ccc(N)cc3)[nH]n2)cc(OC)c1OC
GI50 (HOP-92 NSCLC): 3680 nM | TGI (HOP-92 NSCLC): 27600 nM | GI50 (SK-MEL-5 melanoma): 1650 nM | TGI (SK-MEL-5 melanoma): 3060 nM | GI50 (K-562 leukemia): 726 nM | TGI (K-562 leukemia): 23600 nM | GI50 (M14 melanoma): 1830 nM | TGI (M14 melanoma): 3860 nM | GI50 (SR leukemia): 326 nM | TGI (SR leukemia): 2750 nM | GI50 (UACC-257 melanoma): 1870 nM | TGI (UACC-257 melanoma): 4020 nM | GI50 (RXF 393 renal): 1350 nM | TGI (RXF 393 renal): 3240 nM | GI50 (BT-549 breast): 1380 nM | TGI (BT-549 breast): 2820 nM | GI50 (LOX IMVI melanoma): 1600 nM | TGI (LOX IMVI melanoma): 3280 nM | GI50 (NCI-H23 lung): 2480 nM | TGI (NCI-H23 lung): 6790 nM | GI50 (HS 578T breast): 4330 nM | TGI (HS 578T breast): > 100000 nM | GI50 (PC-3 prostate): 2210 nM | TGI (PC-3 prostate): 10400 nM | GI50 (U251 CNS): 1420 nM | TGI (U251 CNS): 2770 nM | GI50 (HCT-116 colon): 1100 nM | TGI (HCT-116 colon): 2610 nM | GI50 (SK-MEL-2 melanoma): 2850 nM | TGI (SK-MEL-2 melanoma): 7530 nM | GI50 (SF-268 CNS): 1690 nM | TGI (SF-268 CNS): 3930 nM | GI50 (NCI-H522 lung): 1620 nM | TGI (NCI-H522 lung): 3990 nM | GI50 (ACHN renal): 1610 nM | TGI (ACHN renal): 3670 nM | GI50 (MOLT-4 leukemia): 1910 nM | TGI (MOLT-4 leukemia): 8510 nM | GI50 (HT29 colon): 1850 nM | TGI (HT29 colon): 4820 nM | GI50 (SF-295 CNS): 2550 nM | TGI (SF-295 CNS): 10900 nM | GI50 (T-47D breast): 1420 nM | TGI (T-47D breast): 4300 nM | GI50 (MDA-MB-435): 1660 nM | TGI (MDA-MB-435): 3210 nM | GI50 (A498 renal): 1640 nM | TGI (A498 renal): 4330 nM | GI50 (NCI-H460 lung): 1800 nM | TGI (NCI-H460 lung): 5100 nM | GI50 (MCF7 breast): 1500 nM | TGI (MCF7 breast): 5420 nM | GI50 (HL-60(TB) leukemia): 1740 nM | TGI (HL-60(TB) leukemia): 10800 nM | GI50 (OVCAR-5 ovarian): 1780 nM | TGI (OVCAR-5 ovarian): 3750 nM | GI50 (MALME-3M melanoma): 2050 nM | TGI (MALME-3M melanoma): 4710 nM | GI50 (NCI-H226 lung): 1710 nM | TGI (NCI-H226 lung): 3510 nM | GI50 (OVCAR-3 ovarian): 1570 nM | TGI (OVCAR-3 ovarian): 3370 nM | GI50 (NCI/ADR-RES ovarian): 3800 nM | TGI (NCI/ADR-RES ovarian): 65800 nM | GI50 (TK-10 renal): 4840 nM | TGI (TK-10 renal): 17500 nM | GI50 (SK-MEL-28 melanoma): 1860 nM | TGI (SK-MEL-28 melanoma): 4080 nM | GI50 (COLO 205 colon): 1740 nM | TGI (COLO 205 colon): 3340 nM | GI50 (IGROV1 ovarian): 3200 nM | TGI (IGROV1 ovarian): 10500 nM | GI50 (DU-145 prostate): 1650 nM | TGI (DU-145 prostate): 4050 nM | GI50 (786-0 renal): 2040 nM | TGI (786-0 renal): 6490 nM | GI50 (OVCAR-8 ovarian): 2390 nM | TGI (OVCAR-8 ovarian): 9760 nM | GI50 (SK-OV-3 ovarian): 2990 nM | TGI (SK-OV-3 ovarian): 8320 nM | GI50 (HCC-2998 colon): 2010 nM | TGI (HCC-2998 colon): 3630 nM | GI50 (SNB-19 CNS): 2340 nM | TGI (SNB-19 CNS): 9980 nM | GI50 (CCRF-CEM leukemia): 556 nM | TGI (CCRF-CEM leukemia): 4170 nM | GI50 (SF-539 CNS): 1300 nM | TGI (SF-539 CNS): 2660 nM | GI50 (UACC-62 melanoma): 1700 nM | TGI (UACC-62 melanoma): 3580 nM | GI50 (SN12C renal): 1860 nM | TGI (SN12C renal): 4520 nM | GI50 (UO-31 renal): 1360 nM | TGI (UO-31 renal): 2860 nM | GI50 (RPMI-8226 leukemia): 479 nM | TGI (RPMI-8226 leukemia): 2770 nM | GI50 (SW-620 colon): 2050 nM | TGI (SW-620 colon): 6370 nM | GI50 (MDA-MB-231 breast): 2060 nM | TGI (MDA-MB-231 breast): 12200 nM | GI50 (A549 NSCLC): 2080 nM | TGI (A549 NSCLC): 7020 nM | GI50 (KM12 colon): 1140 nM | TGI (KM12 colon): 2880 nM | GI50 (HOP-62 NSCLC): 1770 nM | TGI (HOP-62 NSCLC): 3920 nM | GI50 (HCT-15 colon): 1370 nM | TGI (HCT-15 colon): 6760 nM | GI50 (OVCAR-4 ovarian): 1400 nM | TGI (OVCAR-4 ovarian): 5440 nM
